The target in test [1] is T1, human SGLT2 (Homo sapiens, UniProt P31639).
T1 construct: expressed in transfected cells
T1 sequence (P31639 1-672): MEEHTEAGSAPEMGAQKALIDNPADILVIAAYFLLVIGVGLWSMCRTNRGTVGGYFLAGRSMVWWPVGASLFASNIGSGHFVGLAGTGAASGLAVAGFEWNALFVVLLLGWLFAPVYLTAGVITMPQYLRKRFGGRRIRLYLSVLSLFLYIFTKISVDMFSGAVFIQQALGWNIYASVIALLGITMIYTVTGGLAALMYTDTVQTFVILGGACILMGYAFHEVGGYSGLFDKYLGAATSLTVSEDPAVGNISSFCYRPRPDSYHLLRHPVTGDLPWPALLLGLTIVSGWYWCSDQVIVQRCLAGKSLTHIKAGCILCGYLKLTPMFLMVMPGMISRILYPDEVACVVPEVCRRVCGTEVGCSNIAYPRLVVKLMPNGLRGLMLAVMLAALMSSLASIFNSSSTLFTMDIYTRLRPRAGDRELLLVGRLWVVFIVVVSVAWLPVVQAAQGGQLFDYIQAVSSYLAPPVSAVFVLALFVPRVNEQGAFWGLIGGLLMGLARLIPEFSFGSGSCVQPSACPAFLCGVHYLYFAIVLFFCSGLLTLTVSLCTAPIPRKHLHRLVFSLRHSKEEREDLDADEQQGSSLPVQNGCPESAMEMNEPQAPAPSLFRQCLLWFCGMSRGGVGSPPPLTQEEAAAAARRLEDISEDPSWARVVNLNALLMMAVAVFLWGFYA
The test is described as follows: Cell-based assay for sodium-dependent glucose transport (14C-AMG uptake), CHOK-SGLT2. Particulars: CHO-K1 cells stably expressing human SGLT2; for pIC50: Na-dependent 14C-AMG uptake. How it is done: (§1) Cloning of the human SGLT1 and human SGLT2 cDNAs and construction of the mammalian expression vector: The human SGLT1 cDNA (Genbank M24847) was cloned from human small intestine. Human SGLT2 cDNA (Genbank M95549) was cloned from human kidney. Both full cDNAs were subcloned into pcDNA and sequenced to verify the integrity of the construct.
(§2) Generation of CHO-K1 cells stably expressing human SGLT1 or human SGLT2: Transfection of CHO-K1 cells was performed using DMRIE-C reagent (Life Technologies, Gaithersburg, Md.). Transfectants were then selected in the presence of the antibiotic G418 (Gibco-BRL, Grand Island, N.Y.) at 400 μg/ml. Individual clones were then characterized using the functional assay described below.
(§3) Cell-based assay for sodium-dependent glucose transport: Cell lines stably expressing human SGLT1 or SGLT2 were then used for functional analysis of Na+-dependent glucose uptake. Briefly, cells were plated at a density of 65,000 cells per well in a 96-well plate and allowed to grow for 48 hours. Cells were subsequently washed one time with Assay Buffer (50 mM HEPES pH […], 5 mM KCl, 1 mM MgCl2, 1 mM CaCl2 and 137 mM NaCl) and treated with compound in the absence or presence of NaCl for 15 minutes. Cells were then labeled with ^14C-α-methylglucopyranoside (AMG, Sigma, St. Louis, Mo.), a non-metabolizable glucose analog specific for sodium-dependent glucose transporters as previously described (Peng, H. and Lever J. E. Post-transcriptional regulation of Na^+/glucose cotransporter (SGLT1) gene expression in LLC-PK1 cells. J Biol Chem 1995; 270:20536-20542.). After 2 hours the labeled cells were washed three times with ice-cold PBS. After aspiration, cells were solubilized using Microscint 20 (Packard, Meriden, Conn.) and Na-dependent ^14C-AMG uptake was quantified by measuring radioactivity. Plates were counted in a TopCount (Packard, Meriden, Conn.). Results are reported as the % inhibition or IC50 value from a representative experiment. Variability for the functional assay was typically within 20%.

In test [2] the target is T2, human SGLT1 (Homo sapiens, UniProt P13866).
T2 construct: expressed in transfected cells
T2 sequence (P13866 1-664): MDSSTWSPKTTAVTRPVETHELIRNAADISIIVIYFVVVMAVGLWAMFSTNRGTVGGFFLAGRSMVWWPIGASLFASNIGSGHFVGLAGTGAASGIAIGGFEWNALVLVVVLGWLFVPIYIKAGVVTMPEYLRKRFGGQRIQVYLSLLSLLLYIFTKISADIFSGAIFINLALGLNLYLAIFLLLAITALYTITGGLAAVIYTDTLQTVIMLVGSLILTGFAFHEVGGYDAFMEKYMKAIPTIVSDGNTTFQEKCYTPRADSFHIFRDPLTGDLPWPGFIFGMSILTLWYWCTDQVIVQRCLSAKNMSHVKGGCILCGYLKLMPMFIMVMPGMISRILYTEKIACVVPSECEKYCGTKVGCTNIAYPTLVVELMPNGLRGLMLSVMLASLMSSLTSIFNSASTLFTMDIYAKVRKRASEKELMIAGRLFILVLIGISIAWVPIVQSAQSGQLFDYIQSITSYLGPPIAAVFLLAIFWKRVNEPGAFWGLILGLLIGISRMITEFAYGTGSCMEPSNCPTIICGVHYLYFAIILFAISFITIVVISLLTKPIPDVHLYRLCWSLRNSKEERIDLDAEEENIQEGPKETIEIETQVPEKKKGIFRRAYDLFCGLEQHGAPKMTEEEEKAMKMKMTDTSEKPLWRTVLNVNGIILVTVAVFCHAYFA
Description: Cell-based assay for sodium-dependent glucose transport (14C-AMG uptake), CHOK-SGLT1. Particulars: CHO-K1 cells stably expressing human SGLT1; for pIC50: Na-dependent 14C-AMG uptake; for inhibition at 10 µM: 10 μM compound, read-out: CHOK-SGLT1 % Inh. @ 10 μM. How it is done:
as §1, §2, §3

pIC50: −log10 of the molar value.

As usually defined, the pIC50 is the negative decadic logarithm of the IC50, by convention in mol/L. Higher therefore signals a small IC50.

As to `OC[C@H]1O[C@@H](Oc2cccc3[nH]cc(CCc4ccc5c(c4)CCO5)c23)[C@H](O)[C@@H](O)[C@@H]1O` [Example 1, 2-{3-[2-(2,3-Dihydro-benzofuran-5-yl)-ethyl]-1H-indol-4-yloxy} β-D-glucopyranoside], the figures for the pIC50 in test [1] and in test [2] were 7.70 and 6.83, respectively. The like results for `CC(=O)OC[C@H]1O[C@@H](Oc2cccc3[nH]cc(CCc4ccc5c(c4)CCO5)c23)[C@H](O)[C@@H](O)[C@@H]1O` [Example 2, 2-{3-[2-(2,3-Dihydro-benzofuran-5-yl)-ethyl]-1H-indol-4-yloxy}-6-O-acetyl β-D-glucopyranoside] were, in that order, 6.80 and 5.87. The like results for `Cn1cc(CCc2ccc3c(c2)CCO3)c2c(O[C@@H]3O[C@H](CO)[C@@H](O)[C@H](O)[C@H]3O)cccc21` [Example 3, 2-{3-[2-(2,3-Dihydro-benzofuran-5-yl)-ethyl]-1-methyl-1H-indol-4-yloxy} β-D-glucopyranoside] were, in that order, 7.21 and 6.71. `OC[C@H]1O[C@@H](Oc2cccc3[nH]cc(CCc4ccc5c(c4)OCO5)c23)[C@H](O)[C@@H](O)[C@@H]1O` [Example 4, 2-[3-(2-Benzo[1,3]dioxol-5-yl-ethyl)-1H-indol-4-yloxy] β-D-glucopyranoside]: the values for the pIC50 in test [1] and in test [2] were 7.01 and 6.08, respectively. Taken in the same sequence, the figures for `OC[C@H]1O[C@@H](Oc2cccc3[nH]cc(CCc4ccc5c(c4)OCCO5)c23)[C@H](O)[C@@H](O)[C@@H]1O` [Example 5, 2-{3-[2-(2,3-Dihydro-benzo[1,4]dioxin-6-yl)-ethyl]-1H-indol-4-yloxy}-β-D-glucopyranoside] were 6.84 and 5.47. Compound `OC[C@H]1O[C@@H](Oc2cccc3[nH]cc(CCc4ccc5ccccc5c4)c23)[C@H](O)[C@@H](O)[C@@H]1O` [Example 6, 2-[3-(2-Naphthalen-2-yl-ethyl)-1H-indol-4-yloxy]-β-D-glucopyranoside] showed a pIC50 in test [1] of 6.83.

As for `COc1ccc(CCc2c[nH]c3cccc(O[C@@H]4O[C@H](CO)[C@@H](O)[C@H](O)[C@H]4O)c23)cc1` [Example 7, 2-{3-[2-(4-Methoxy-phenyl)-ethyl]-1H-indol-4-yloxy}-β-D-glucopyranoside], the pIC50 is 6.85 in test [1] and 6.25 in test [2].

In the case of `CCOc1ccc(CCc2c[nH]c3cccc(O[C@@H]4O[C@H](CO)[C@@H](O)[C@H](O)[C@H]4O)c23)cc1` [Example 8, 2-{3-[2-(4-Ethoxy-phenyl)-ethyl]-1H-indol-4-yloxy}-β-D-glucopyranoside], the pIC50 in test [1] is 6.74; in test [2], 5.87. `CCc1ccc(CCc2c[nH]c3cccc(O[C@@H]4O[C@H](CO)[C@@H](O)[C@H](O)[C@H]4O)c23)cc1` [Example 9, 2-{3-[2-(4-Ethyl-phenyl)-ethyl]-1H-indol-4-yloxy}-β-D-glucopyranoside]: the inhibition at 1 µM in test [1] (1 μM compound, read-out: CHOK-SGLT2 % Inh. @ 1 μM) was 50%. Also, the inhibition at 10 µM in test [2] came out at 46%. Take `COc1ccc(CCc2c[nH]c3cc(C)cc(O[C@@H]4O[C@H](CO)[C@@H](O)[C@H](O)[C@H]4O)c23)cc1` [Example 10, 2-{3-[2-(4-Methoxy-phenyl)-ethyl]-6-methyl-1H-indol-4-yloxy}-β-D-glucopyranoside]: the pIC50 in test [1] was 6.42; in test [2], 5.56. Taken in the same sequence, the figures for `CCc1ccc(Cc2c[nH]c3cccc(O[C@@H]4O[C@H](CO)[C@@H](O)[C@H](O)[C@H]4O)c23)cc1` [Example 11, 2-[3-(4-Ethyl-benzyl)-1H-indol-4-yloxy]-β-D-glucopyranoside] were 7.62 and 5.74.

The compound `CCc1ccc(Cc2c[nH]c3cccc(O[C@@H]4O[C@H](COC(=O)OC)[C@@H](O)[C@H](O)[C@H]4O)c23)cc1` [Example 12, 2-[3-(4-Ethyl-benzyl)-1H-indol-4-yloxy]-6-O-methoxycarbonyl-β-D-glucopyranoside] had a pIC50 in test [1] of 6.18. Same read-out and setting: for `CCOC(=O)OC[C@H]1O[C@@H](Oc2cccc3[nH]cc(Cc4ccc(CC)cc4)c23)[C@H](O)[C@@H](O)[C@@H]1O` [Example 13, 2-[3-(4-Ethyl-benzyl)-1H-indol-4-yloxy]-6-O-ethoxycarbonyl-β-D-glucopyranoside] the value was 6.19. In the case of `CCCCCC(=O)OC[C@H]1O[C@@H](Oc2cccc3[nH]cc(Cc4ccc(CC)cc4)c23)[C@H](O)[C@@H](O)[C@@H]1O` [Example 14, 2-[3-(4-Ethyl-benzyl)-1H-indol-4-yloxy]-6-O-hexanoyl-β-D-glucopyranoside], the negative-log IC50 (pIC50) in test [1] is 6.69. Also, the inhibition at 10 µM in test [2] amounted to 71%. Regarding `Cc1ccc(Cc2c[nH]c3cccc(O[C@@H]4O[C@H](CO)[C@@H](O)[C@H](O)[C@H]4O)c23)cc1` [Example 15, 2-[3-(4-Methyl-benzyl)-1H-indol-4-yloxy]-β-D-glucopyranoside], the figures for the pIC50 in test [1] and in test [2] were 7.28 and 5.41, respectively. In the case of `Cc1ccc(Cc2c[nH]c3cccc(O[C@@H]4O[C@H](CO)[C@@H](O)[C@H](O)[C@H]4O)c23)cc1F` [Example 16, 2-[3-(3-Fluoro-4-methyl-benzyl)-1H-indol-4-yloxy]-β-D-glucopyranoside], the pIC50 in test [1] was 7.17. For the same compound, the inhibition at 3 µM in test [2] (3 μM compound, read-out: CHOK-SGLT1 % Inh. @ 3 μM) was found to be 42%.

As to `CCCc1ccc(Cc2c[nH]c3cccc(O[C@@H]4O[C@H](CO)[C@@H](O)[C@H](O)[C@H]4O)c23)cc1` [Example 17, 2-[3-(4-propyl-benzyl)-1H-indol-4-yloxy]-β-D-glucopyranoside], the pIC50 in test [1] is 7.31. On the same count and under the same terms, for `OC[C@H]1O[C@@H](Oc2cccc3[nH]cc(Cc4ccc(Oc5ccccc5)cc4)c23)[C@H](O)[C@@H](O)[C@@H]1O` [Example 26, 2-[3-(4-Phenoxy-benzyl)-1H-indol-4-yloxy]-β-D-glucopyranoside] the value was 6.38. `CCc1ccc(Cc2cn(C(C)C)c3cccc(O[C@@H]4O[C@H](CO)[C@@H](O)[C@H](O)[C@H]4O)c23)cc1` [Example 31, 2-[3-(4-Ethyl-benzyl)-1-isopropyl-1H-indol-4-yloxy]-β-D-glucopyranoside] showed a pIC50 in test [1] of 5.29. Take `COc1ccc(-c2c[nH]c3cccc(O[C@@H]4O[C@H](CO)[C@@H](O)[C@H](O)[C@H]4O)c23)cc1` [Example 33, 2-[3-(4-Methoxy-phenyl)-1H-indol-4-yloxy]-β-D-glucopyranoside]: the inhibition at 10 µM in test [1] (10 μM compound, read-out: CHOK-SGLT2 % Inh. @ 10 μM) amounted to 37%.

The values above are taken from patent US7820630B2, “Substituted indole-O-glucosides” (Janssen Pharmaceutica NV, priority 2003, dated 2010).
